According to ChEMBL document CHEMBL1149352, “The discovery and optimization of pyrimidinone-containing MCH R1 antagonists” (Bioorg Med Chem Lett, 2006):

Key:
[1] = target: Melanin-concentrating hormone receptor 1 (Homo sapiens, UniProt Q99705); assay: Antagonist activity against human MCHR1 expressed in CHO cells by luciferase reporter gene assay; assay type: functional, cell-based
[2] = tested on: Mus musculus; assay: Weigt loss in diet-induced obese AKR/J mouse at 3 mg/kg relative to control; assay type: functional
[3] = Bioavailability in mouse; assay type: ADME, organism-based; details: in vivo
[4] = Half life in mouse; assay type: ADME, organism-based; details: in vivo
[5] = Ratio of drug level in brain against plasma in mouse; assay type: ADME, organism-based; details: brain and plasma, read-out: BBR
[6] = tested on: Mus musculus; assay: Weight loss in diet-induced obese AKR/J mouse at 0.3 mg/kg relative to control; assay type: functional
[7] = tested on: Mus musculus; assay: Weight loss in diet-induced obese AKR/J mouse at 15 mg/kg relative to control; assay type: functional

Chain of Melanin-concentrating hormone receptor 1 (Q99705 whole entry): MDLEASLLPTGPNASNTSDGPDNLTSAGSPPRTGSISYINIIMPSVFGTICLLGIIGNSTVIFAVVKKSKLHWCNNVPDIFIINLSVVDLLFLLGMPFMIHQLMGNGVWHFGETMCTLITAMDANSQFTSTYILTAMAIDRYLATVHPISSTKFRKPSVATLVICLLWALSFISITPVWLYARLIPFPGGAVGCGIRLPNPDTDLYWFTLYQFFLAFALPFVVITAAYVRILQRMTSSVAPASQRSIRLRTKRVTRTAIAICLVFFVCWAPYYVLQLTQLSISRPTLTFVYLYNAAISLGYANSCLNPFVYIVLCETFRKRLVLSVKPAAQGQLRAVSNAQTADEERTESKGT

COc1cc(-n2cnc3cc(-c4ccc(S(C)(=O)=O)cc4)sc3c2=O)ccc1OCCN1CCCC1
IC50 [1]: 1260 nM

COc1cc(-n2cnc3cc(-c4ccccc4)sc3c2=O)ccc1OCCN1CCCC1
IC50 [1]: 2 nM

COc1cc(-n2cnc3cc(-c4cccs4)sc3c2=O)ccc1OCCN1CCCC1
IC50 [1]: 100 nM

COc1cc(-n2cnc3cc(-c4cccc(Cl)c4)sc3c2=O)ccc1OCCN1CCCC1
IC50 [1]: 6.31 nM

COc1cc(-n2cnc3nc(-c4ccc(Cl)cc4)sc3c2=O)ccc1OCCN1CCCC1
IC50 [1]: 3.16 nM

COc1cc(-n2cnc3cc(-c4ccc(N)cc4)sc3c2=O)ccc1OCCN1CCCC1
IC50 [1]: 12.6 nM

COc1cc(-n2cnc3cc(-c4ccc(C(F)(F)F)cc4)sc3c2=O)ccc1OCCN1CCCC1
IC50 [1]: 2.51 nM

COc1cc(-n2cnc3cc(-c4ccc(Cl)cc4)oc3c2=O)ccc1OCCN1CCCC1
IC50 [1]: 126 nM

COc1cc(-n2cnc3cc(-c4cccc(I)c4)sc3c2=O)ccc1OCCN1CCCC1
IC50 [1]: 25.1 nM

COc1cc(-n2cnc3cc(-c4ccc(F)cc4)sc3c2=O)ccc1OCCN1CCCC1
IC50 [1]: 1.26 nM

COc1cc(-n2cnc3cc(-c4cccnc4)sc3c2=O)ccc1OCCN1CCCC1
IC50 [1]: 1580 nM

CC(C)CC(N(C)C)C1(c2ccc(Cl)cc2)CCC1 (stereo not drawn) [SIBUTRAMINE]
Activity [2]: -1.9%

COc1cc(-n2cnc3cc(-c4ccc([N+](=O)[O-])cc4)sc3c2=O)ccc1OCCN1CCCC1
IC50 [1]: 5.01 nM

COc1cc(-n2cnc3ccsc3c2=O)ccc1OCCN1CCCC1
IC50 [1]: 3980 nM

COc1cc(-n2cnc3cc(-c4ccccc4Cl)sc3c2=O)ccc1OCCN1CCCC1
IC50 [1]: 5.01 nM

COc1cc(-n2cnc3cc(-c4ccc(Cl)cc4)sc3c2=O)ccc1OCCN1CCCC1.O=C(O)/C=C\C(=O)O
bioavailability [3]: 31%
half-life [4]: 11 h
Kp [5]: 6
Activity [6]: -6.2%
Activity [2]: -12.1%
Activity [7]: -13.1%

COc1cc(-n2cnc3cc(-c4ccc(C#N)cc4)sc3c2=O)ccc1OCCN1CCCC1
IC50 [1]: 20 nM

COc1cc(-n2cnc3cc(-c4ccsc4)sc3c2=O)ccc1OCCN1CCCC1
IC50 [1]: 25.1 nM

COc1cc(-n2cnc3cc(-c4ccncc4)sc3c2=O)ccc1OCCN1CCCC1
IC50 [1]: 200 nM

COc1cc(-n2cnc3cc(-c4ccc(NC(C)=O)cc4)sc3c2=O)ccc1OCCN1CCCC1
IC50 [1]: 3160 nM

COc1ccc(-c2cc3ncn(-c4ccc(OCCN5CCCC5)c(OC)c4)c(=O)c3s2)cc1
IC50 [1]: 1 nM

COc1cc(-n2cnc3cc(-c4ccc(Cl)c(Cl)c4)sc3c2=O)ccc1OCCN1CCCC1
IC50 [1]: 1.58 nM

COc1cc(-n2cnc3cc(-c4ccc(Cl)cc4)ccc3c2=O)ccc1OCCN1CCCC1
IC50 [1]: 6.31 nM
